Assay results: US5616715A, “Dihydropyridine-3, 5-dicarboxylic acid ester derivatives” (Yamanouchi Pharmaceutical Co., Ltd., priority 1984, dated 1997)
Where a name gives a salt, the structure may show the parent alone.

Assays:
[1] = tested on: coronary artery; assay: Coronary Vasodilating Effect in Anesthetized Dogs (direct intracoronary administration); format: in vivo; conditions: 1 μg directly into coronary artery; for Overall increase in coronary blood flow at 1 μg: area under the percent increase in coronary blood flow
Protocol: (1) Coronary Vasodilating Effect in Anesthetized Dogs
In open-chest dogs anesthetized with 30 mg/kg i.v. of pentobarbital sodium, arterial blood from the carotid artery was led to circumflex branch of the left coronary artery by a extracorporeal loop. A servocontrolled pure (model 1215D, Harvard Apparatus) was incorporated in the circuit to maintain a constant perfusion pressure of 120 mmHg by means of a pump controller (SCS-22, Data Graph Co., Tokuya Tukada et al., Folia Pharmacol. Japon, 74, 59p, 1978). An electromagnetic flow probe of extracorporeal type (MF-25, Nihon Koden) was also inserted in the circuit to record coronary blood flow. A dose of 1 μg of the compound was administered directly into the coronary artery and then coronary blood flow was monitored until the blood flow returned to the pretreatment value. And then, the area under the percent increase in coronary blood flow after intracoronary injection of 1 μg of the compound was calculated and used as an index of the overall increase in coronary blood flow.

[2] = Hypotensive Effect in Anesthetized Rats; format: in vivo; conditions: for ED (30 mmHg): Rattus norvegicus, iv, urethane-anesthetized rats, dose required to lower mean blood pressure by 30 mmHg
Protocol: (2) Hypotensive Effect in Anesthetized Rats
Blood pressure was measured in urethane-anesthetized rats. The compound was intravenously administered in an increasing dose manner at an interval of 20 minutes. The doses of the compounds required to lower mean blood pressure by 30 mmHg (ED 30 mmHg) was calculated from the dose-response curves and summarized in Table 2.

[3] = Acute Toxicity in Mice; conditions: mouse, in vivo; oral, six weeks old male ICR mice, suspended in 0.5% methylcellulose; Litchfield & Wilcoxon
Protocol: (3) Acute Toxicity in Mice
Six weeks old and male ICR mice weighing 27 to 29 g were used. The compound was suspended in 0.5% methylcellulose solution and administered orally to mice. The LD50 values of the compounds were calculated by the method of Litchfield & Wilcoxon (Journal of Pharmacol. & Exp. Therap., 96, 99-113, 1949) and summarized in Table 3.

[4] = U.S. Pat. No. 4,220,649; U. K. Patent No. 2,014,134; cited from earlier work

SMILES	Duration of the action [1] [min]	Overall increase in coronary blood flow at 1 μg [1]	ED (30 mmHg) [2] [mg/kg]	LD50 [3] [mg/kg]	hypotensive activity, potency ratio to diastereoisomer B hydrochloride ([2]; anesthetized rats, i.v.)	duration of the vasodilating and hypotensive effect [4]	vasodilating activity and hypotensive activity [4]
COC(=O)C1=C(C)NC(C)=C(C(=O)OC2CCN(Cc3ccccc3)C2)C1c1cccc([N+](=O)[O-])c1 (racemic) [Diastereoisomer B (dl form) hydrochloride]	5	120 ± 28 %, min.	0.14				
COC(=O)C1=C(C)NC(C)=C(C(=O)OC2CCN(Cc3ccccc3)C2)C1c1cccc([N+](=O)[O-])c1 (racemic) [Equivalent mixture of the hydrochlorides of diastereoisomers]	10	129 ± 47 %, min.					
COC(=O)C1=C(C)NC(C)=C(C(=O)O[C@H]2CCN(Cc3ccccc3)C2)C1c1cccc([N+](=O)[O-])c1 (single isomer, unassigned) [Diastereoisomer A (d form) hydrochloride]	120	4559 ± 894 %, min.		190			
COC(=O)C1=C(C)NC(C)=C(C(=O)OC2CCN(Cc3ccccc3)C2)C1c1cccc([N+](=O)[O-])c1 (single isomer, unassigned) [Diastereoisomer A (dl form) hydrochloride, 2,6-dimethyl-4-(3-nitro-phenyl)-1,4-dihydropyridine-3,5-dicarboxylic acid 3-(1-benzylpyrrolidin-3-yl)ester 5-methyl ester]	60	1816 ± 377 %, min.	0.002	295	about 70 times		
COC(=O)C1=C(C)NC(C)=C(C(=O)OC2CCN(Cc3ccccc3)C2)C1c1cccc([N+](=O)[O-])c1 (stereo not drawn) [YM-09730, 2,6-dimethyl-4-(3-nitropheny)-1,4-dihydropyridine-3,5-dicarboxylic acid 3-(1-benzylpyrrolidin-3-yl)ester 5-methyl ester]						prolonged effect	has a vasodilating activity and a hypotensive activity
